Reference: patent US12428666B2, “Compositions and methods related to kethoxal derivatives” (The University of Chicago, priority 2018, dated 2025)
Entries after “also recorded” stand apart in the source; their conditions may differ.

Key:
[1] = test system: mRNA secondary structures in live cells; experiment: KARRI after translation inhibitor treatment; assay type: cell-based; details: 100 μg/mL cycloheximide or 3 μg/mL harringtonine, 37° C., 10 min
Procedure: KARRI is performed by: (1) Suspend live cells in 1% formaldehyde solution at 1×10^6/mL and incubate at room temperature for 10 min with gentle rotate. Then quench this reaction by adding glycine to a final concentration of 125 mM and rotate the mixture at room temperature for 5 min. For translation inhibitor treatment, cells were treated with 100 μg/mL cycloheximide or 3 μg/mL harringtonine at 37° C. for 10 min. (2) Collect and take 2×10^6 cells. Dilute N3-Kethoxal by 1:5 using DMSO. Make a labeling buffer by adding 10 μL N3-Kethoxal into 290 μL lysis buffer (10 mM Tris-HCl pH 8.0, 10 mM NaCl, 0.2 IGEPAL CA630) with 3 μL 100× proteinase inhibitor cocktail. (3) Suspend cells in labeling buffer and rotate at room temperature for 30 min, then centrifuge at 2500 g for 5 min at 4° C. to collect cells. (4) Wash cell pellets with 500 μL ice-cold lysis buffer for 3 times. (5) Suspend the pellet in 500 μL MeOH containing 10 μM dendrimers, rotate for 1 h at 37° C. Then centrifuge at 2500 g for 5 min at 4° C. to collect cells. (6) Wash cell pellet twice with 500 μL ice-cold lysis buffer. (7) Resuspend cells in 385 μL lysis buffer, add 50 μL 10% SDS, 30 μL proteinase K, 10 μL RNase inhibitor, 25 μL 500 mM K3BO3, shake at 65° C. for 2 h. (8) Add 500 μL phenol-chloroform to extract RNA and purify RNA by EtOH precipitation. […]

Pol II = experiment: ssDNA-seq after Pol II inhibitor treatment; assay type: cell-based, human; details: for ssDNA peak number: 2 h, control more than 43,000; for distribution of ssDNA-seq peaks on gene coding regions: after inhibitor treatment vs control
Procedure: N3-kethoxal enables genome-wide single-stranded DNA mapping (ssDNA-seq). Taking advantage of the sensitivity and the selectivity of N3-kethoxal towards single-stranded nucleic acids, the inventors first applied N3-kethoxal to map single-stranded regions of the genome, which has not been previously achieved. Human embryonic kidney (HEK) cells were cultured in N3-kethoxal-containing medium for 10 min to facilitate labelling before harvested. Genomic DNA was then purified and subjected to biotinylation reaction through “click” chemistry. Biotinylated DNA was purified and fragmented, followed by immunoprecipitation with streptavidin-coated beads. Enriched DNA and their corresponding inputs was used to make libraries, which were then sequenced and aligned.
ssDNA is performed by: (1) Prepare labeling medium by adding 5 μL pure N3-kethoxal to 5 mL pre-warmed cell culture medium for each 10 cm dish. (2) Incubate cells in the labeling medium for 10 min at 37° C., 5% CO2. (3) For transcription inhibition experiments, cells were treated for 2 h under 100 μM DRB or 1 μM triptolide before incubated in N3-kethoxal-containing medium. (4) Harvest cells after the 10 min incubation, isolate total DNA from cells by PureLink genomic DNA mini kit according to the manufacturer's protocol. (5) Suspend 5 μg total DNA in 85 μL H2O, then add 10 μL 10×PBS and 5 μL 20 mM DBCO-PEG4-biotin (DMSO solution), incubate the mixture at 37° C. for 2 h. (6) Add 5 μL RNase A to the reaction mixture, incubate the mixture at 37° C. for another 15 min. (7) Recover DNA from the reaction mixture by DNA Clean & Concentrator kit according to the manufacturer's protocol.

guanine = experiment: Reaction of N3-kethoxal with RNA nucleic bases and RNA oligos (HPLC, MALDI-TOF); assay type: biochemical; details: 12 mer RNA oligo with 4 guanines
Procedure: The reaction of N3-kethoxal and RNA was generally performed with the following protocol: 100 pmol RNA oligo and 1 μmol N3-kethoxal was incubated in total 10 μL solution in PBS buffer at 37° C. for 10 mins. […] The purified labelled RNA can be used for further studies such as mass spectrometry, gel electrophoresis and copper-free click reaction with biotin-DBCO.
MALDI-TOF-MS analysis of N3-kethoxal labelled RNA oligo. […] Meanwhile the buffer exchange occurred from PBS buffer to tris buffer that can be directly used in MALDI-TOF-MS experiment without extra desalt step. One microliter of product solution was mixed with one microliter matrix which include 8:1 volume ratio of 2′4′6′-trihydroxyacetophenone (THAP, 10 mg/mL in 50% CH3CN/H2O):ammonium citrate (50 mg/mL in H2O). Then the mixture was spotted on the MALDI sample plate, dried and analyzed by Bruker Ultraflextreme MALDI-TOF-TOF Mass Spectrometers.
The product of N3-kethoxal with for RNA nucleic bases was analyzed using LC-6AD (Shimadzu, Japan) HPLC instrument, which equipped with an Inertsil ODS-SP column ([…], 250×4.6 mm) (GL Science Inc. Japan). The phase A (100 mM TEAA buffer, pH=7.0) and phase B (CH3CN) were used as eluents with a flow rate of 1 mL/min at 35° C. (B conc.: 5-5-30%/0-5-30 min).

Compound	effect on in vivo RNA secondary structures (KARRI) [1]	distribution of ssDNA-seq peaks on gene coding regions (Pol II)	other results
COC(=O)C[C@](O)(CCC(C)(C)O)C(=O)O[C@@H]1C(OC)=C[C@]23CCCN2CCc2cc4c(cc2[C@H]13)OCO4 [harringtonine]	undermined in vivo-specific structures and increased in vitro features; also recorded: in vivo-specific structures were undermined while some in vitro-specific features showed up	–	–
CC(C)[C@]12O[C@H]1[C@@H]1O[C@]13[C@]1(O[C@H]1C[C@H]1C4=C(CC[C@@]13C)C(=O)OC4)[C@@H]2O [Triptolide, triptolide]	–	most peaks on gene coding regions disappeared	ssDNA peak number (Pol II; 1 μM triptolide): ~3,700
OC[C@H]1O[C@@H](n2cnc3cc(Cl)c(Cl)cc32)[C@H](O)[C@@H]1O [DRB, 5,6-dichloro-1-β-D-ribofuranosylbenzimidazole]	–	Stronger peaks were observed at TSS while peaks on gene body and TES were eliminated	ssDNA peak number (Pol II; 100 μM DRB): around 16,000
Cc1ncccc1C(=O)n1ccnc1 [NAI, reference compound]	–	–	labelling of RNA oligo (MALDI-TOF molecular weight of product) (guanine): some oligoes were only reacted by one NAI and some were labelled by two or three
C[C@@H]1C[C@@H]([C@H](O)CC2CC(=O)NC(=O)C2)C(=O)[C@@H](C)C1 [cycloheximide]	undermined in vivo-specific structures and increased in vitro features	–	–
